“Also recorded” adds a separate entry of the source.

One experiment concerns TLR7/8. As to the kind of experiment: TLR7/8-mediated IL-6 expression in THP-1 cells. In kind it is cell-based, human. Conditions: FIG. 4C.
The target in a further experiment is T1, TLR1/2 (Homo sapiens, UniProt O60603+Q15399).
T1 construct: endogenous in cells; host or cells: THP1-derived macrophages (PMA-differentiated)
As to the kind of experiment: Pam3CSK4-induced TNF-α secretion (ELISA) in THP1-derived macrophages. Conditions: 1 to 50 μM, FIG. 4D. Type of experiment: cell-based. A general note: An ELISA detects its analyte on a solid surface through an enzyme-linked reagent.

A further experiment deals with T2, TLR2/6 (Homo sapiens, UniProt O60603+Q9Y2C9).
T2 construct: endogenous in cells; host or cells: THP1-derived macrophages (PMA-differentiated)
Description: FSL-1-induced TNF-α secretion (ELISA) in THP1-derived macrophages. Type of experiment: cell-based. Conditions: 1 to 50 μM, FIG. 4D.

The next experiment addresses T3, TLR4 (Homo sapiens, UniProt O00206+Q9Y6Y9).
T3 construct: endogenous in cells; host or cells: THP1-derived macrophages (PMA-differentiated)
Description: LPS-induced TNF-α secretion (ELISA) in THP1-derived macrophages. In kind it is cell-based. Conditions: 1 to 50 μM, FIG. 4D.

The next experiment has as its target T4, TLR9 (Homo sapiens, UniProt Q9NR96).
T4 construct: endogenous in cells; host or cells: THP1-derived macrophages (PMA-differentiated)
T4 sequence (Q9NR96 26-1032): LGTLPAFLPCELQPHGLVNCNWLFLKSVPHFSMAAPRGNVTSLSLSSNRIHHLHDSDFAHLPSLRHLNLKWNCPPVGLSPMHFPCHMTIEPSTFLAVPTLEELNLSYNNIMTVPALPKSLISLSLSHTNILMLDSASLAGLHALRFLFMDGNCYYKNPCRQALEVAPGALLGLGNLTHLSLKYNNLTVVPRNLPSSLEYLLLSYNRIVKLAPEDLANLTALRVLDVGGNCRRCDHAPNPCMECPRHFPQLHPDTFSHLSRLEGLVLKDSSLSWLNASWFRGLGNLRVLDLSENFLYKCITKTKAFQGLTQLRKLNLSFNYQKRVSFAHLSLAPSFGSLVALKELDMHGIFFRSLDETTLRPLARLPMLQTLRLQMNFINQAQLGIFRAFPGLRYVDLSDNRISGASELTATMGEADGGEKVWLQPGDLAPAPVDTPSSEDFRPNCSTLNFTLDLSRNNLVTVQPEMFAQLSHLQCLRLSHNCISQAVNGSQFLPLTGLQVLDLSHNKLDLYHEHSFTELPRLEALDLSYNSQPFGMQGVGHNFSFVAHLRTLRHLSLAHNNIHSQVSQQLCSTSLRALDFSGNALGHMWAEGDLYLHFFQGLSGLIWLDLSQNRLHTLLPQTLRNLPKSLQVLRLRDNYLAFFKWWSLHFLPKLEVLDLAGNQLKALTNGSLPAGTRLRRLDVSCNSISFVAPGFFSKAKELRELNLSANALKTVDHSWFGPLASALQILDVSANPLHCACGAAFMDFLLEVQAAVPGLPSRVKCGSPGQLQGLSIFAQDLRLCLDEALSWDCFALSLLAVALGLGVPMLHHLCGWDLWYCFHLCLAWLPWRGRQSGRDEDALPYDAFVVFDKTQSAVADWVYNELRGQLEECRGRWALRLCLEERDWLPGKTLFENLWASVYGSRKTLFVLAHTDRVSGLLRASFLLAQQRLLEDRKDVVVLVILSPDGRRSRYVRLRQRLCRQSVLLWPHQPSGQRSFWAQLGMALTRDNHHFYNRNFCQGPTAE
Description: CpG ODN-induced TNF-α or IL-6 secretion in THP1-derived macrophages. In kind it is cell-based. Conditions: dose-dependent manner, FIGS. 4E-4G.

In a further experiment the test system is MARC/lpr mice. As to the kind of experiment: SLE mouse model (MARC/lpr mice). Type of experiment: in vivo. As to the method: QRT-PCR analysis was performed to detect the expression levels of specific genes in lymph nodes, spleen and kidney. Total RNA was isolated from lymph nodes, spleen and kidneys of 16-week-old mice using TRI reagent (Sigma-Aldrich, Co.). RNA was applied to qRT-PCR based on SYBR green (Enzo Life Sciences, Inc., Farmingdale, N.Y., USA). The following primers for the marker gene were used: mTLR7, 5′-ATGTGGACACGGAAGAGACAA-3′(SEQ ID NO: 1) and 5′-GGT AAG GGT AAG ATT GGT G-3′(SEQ ID NO: 2); mTLR9, 5′-ATGGTTCTCCGTCGAAGGACT-3′ (SEQ ID NO: 3) and 5′-GAG GCT TCA GCT CAC AGG G-3′(SEQ ID NO: 4); mIL-6, 5′-GAGGATACCACTCCCAACAGACC-3′(SEQ ID NO: 5) and 5′-AAGTGCATCATCGTTGTTCATACA-3′(SEQ ID NO: 6); mMyd88, 5′-CACCTGTGTCTGGTCCATTG-3′(SEQ ID NO: 7) and 5′-CTGTTGGACACCTGGAGACA-3′(SEQ ID NO: 8); mIL-17, 5′-GCT CCA GAA GGC CCT CAG A-3′ (SEQ ID NO: 9) and 5′-AGC TTT CCC TCC GCA TTG A-3′(SEQ ID NO: 10); mGAPDH, 5′-CTCAACACGGGAAACCTCAC-3′ (SEQ ID NO: 11) and 5′-CGCTCCACCAACTAAGAACG-3′(SEQ ID NO: 12) (Bioneer, Daejeon, Korea). Quantified individual RNA expression levels were normalized to GAPDH and expressed as RNA expression levels relative to the corresponding wild-type mice.
The therapeutic potential of TAC5-a on systemic autoimmunity was further determined by intraperitoneally injecting 10 nmol/g (daily dosage) of TAC5-a (dissolved in 1% dimethylsulfoxide [DMSO]) into MARC/lpr mice for 11 days. This inhibitor clearly influenced mouse lymphatic proliferation. […] The production of anti-dsDNA autoantibodies was kept low (FIG. 6B), and serum antinuclear antibodies (ANAs) were reduced by treatment with inhibitors (FIG. 6C). The detection of certain proteins, such as albumin, in the urine serves as a marker for a kidney pathology called glomerulonephritis (GN), which is caused by inflammation of the glomerulus. […] Then, the effect of TAC5-a on the relative expression behaviors of specific genes in lymph nodes, spleen and kidneys at the transcription level was confirmed.

T1 sequence (Q15399 25-786): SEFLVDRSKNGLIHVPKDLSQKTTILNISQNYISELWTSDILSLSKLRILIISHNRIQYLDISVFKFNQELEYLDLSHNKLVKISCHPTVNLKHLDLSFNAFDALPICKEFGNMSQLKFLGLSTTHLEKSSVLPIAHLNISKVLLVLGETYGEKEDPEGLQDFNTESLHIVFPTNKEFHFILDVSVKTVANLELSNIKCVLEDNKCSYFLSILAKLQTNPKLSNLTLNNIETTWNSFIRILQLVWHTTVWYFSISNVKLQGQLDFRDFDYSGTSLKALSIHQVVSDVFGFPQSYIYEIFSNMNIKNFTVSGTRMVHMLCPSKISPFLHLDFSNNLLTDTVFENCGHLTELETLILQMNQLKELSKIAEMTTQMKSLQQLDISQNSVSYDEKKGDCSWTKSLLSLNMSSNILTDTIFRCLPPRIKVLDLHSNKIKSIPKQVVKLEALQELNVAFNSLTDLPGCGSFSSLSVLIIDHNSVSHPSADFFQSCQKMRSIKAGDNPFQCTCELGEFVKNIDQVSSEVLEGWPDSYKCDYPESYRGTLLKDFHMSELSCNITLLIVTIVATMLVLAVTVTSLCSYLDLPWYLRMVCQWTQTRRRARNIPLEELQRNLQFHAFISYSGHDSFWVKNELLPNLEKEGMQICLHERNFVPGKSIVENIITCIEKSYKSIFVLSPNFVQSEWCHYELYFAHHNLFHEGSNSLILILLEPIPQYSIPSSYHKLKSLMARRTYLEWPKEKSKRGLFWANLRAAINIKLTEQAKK
T1 sequence (O60603 21-784): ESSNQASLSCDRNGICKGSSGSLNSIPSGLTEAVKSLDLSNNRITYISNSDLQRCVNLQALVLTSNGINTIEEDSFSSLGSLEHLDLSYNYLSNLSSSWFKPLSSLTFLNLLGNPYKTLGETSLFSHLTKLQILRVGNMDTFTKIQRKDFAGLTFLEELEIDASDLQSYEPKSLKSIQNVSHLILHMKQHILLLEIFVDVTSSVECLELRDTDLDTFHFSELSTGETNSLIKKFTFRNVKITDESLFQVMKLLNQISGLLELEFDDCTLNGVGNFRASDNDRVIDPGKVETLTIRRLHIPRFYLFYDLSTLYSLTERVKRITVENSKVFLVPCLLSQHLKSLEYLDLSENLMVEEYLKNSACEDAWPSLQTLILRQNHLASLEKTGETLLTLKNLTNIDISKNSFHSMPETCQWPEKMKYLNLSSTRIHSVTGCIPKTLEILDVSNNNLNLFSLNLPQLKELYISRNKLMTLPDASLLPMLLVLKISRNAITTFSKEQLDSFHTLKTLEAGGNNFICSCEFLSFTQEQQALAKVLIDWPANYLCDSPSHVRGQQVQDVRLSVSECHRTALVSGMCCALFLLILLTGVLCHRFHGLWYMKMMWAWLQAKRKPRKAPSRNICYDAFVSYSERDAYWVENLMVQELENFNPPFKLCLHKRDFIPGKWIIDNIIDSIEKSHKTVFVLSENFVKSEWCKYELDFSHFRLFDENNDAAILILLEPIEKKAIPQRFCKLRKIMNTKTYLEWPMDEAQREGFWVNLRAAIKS
T3 sequence (O00206 24-839): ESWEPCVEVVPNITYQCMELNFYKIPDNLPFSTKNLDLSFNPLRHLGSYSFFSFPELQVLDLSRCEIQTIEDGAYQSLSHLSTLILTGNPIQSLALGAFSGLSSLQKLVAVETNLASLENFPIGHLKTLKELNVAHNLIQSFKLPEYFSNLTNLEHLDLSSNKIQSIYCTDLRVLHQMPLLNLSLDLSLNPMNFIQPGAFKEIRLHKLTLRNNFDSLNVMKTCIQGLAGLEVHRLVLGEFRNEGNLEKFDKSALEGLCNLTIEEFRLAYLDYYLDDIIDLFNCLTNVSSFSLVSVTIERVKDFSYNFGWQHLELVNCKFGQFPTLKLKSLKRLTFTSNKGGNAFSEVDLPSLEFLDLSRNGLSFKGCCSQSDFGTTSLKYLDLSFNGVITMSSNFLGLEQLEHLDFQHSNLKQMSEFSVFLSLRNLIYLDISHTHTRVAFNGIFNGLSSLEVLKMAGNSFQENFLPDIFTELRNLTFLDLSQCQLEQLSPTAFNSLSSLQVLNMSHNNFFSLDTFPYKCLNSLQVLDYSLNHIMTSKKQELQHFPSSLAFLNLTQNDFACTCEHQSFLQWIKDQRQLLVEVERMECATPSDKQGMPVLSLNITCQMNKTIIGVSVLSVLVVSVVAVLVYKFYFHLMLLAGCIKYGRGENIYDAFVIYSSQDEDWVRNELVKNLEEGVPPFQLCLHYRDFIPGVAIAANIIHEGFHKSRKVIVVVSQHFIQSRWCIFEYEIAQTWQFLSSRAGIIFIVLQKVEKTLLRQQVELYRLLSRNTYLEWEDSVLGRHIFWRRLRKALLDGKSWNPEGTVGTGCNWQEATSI
T3 sequence (Q9Y6Y9 17-160 limits assumed): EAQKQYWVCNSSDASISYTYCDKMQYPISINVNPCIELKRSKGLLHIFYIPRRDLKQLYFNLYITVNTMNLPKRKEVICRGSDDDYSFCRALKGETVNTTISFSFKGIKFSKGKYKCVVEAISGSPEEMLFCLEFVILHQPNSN
T2 sequence (O60603 21-784): as the sequence (O60603 21-784) above
T2 sequence (Q9Y2C9 32-796): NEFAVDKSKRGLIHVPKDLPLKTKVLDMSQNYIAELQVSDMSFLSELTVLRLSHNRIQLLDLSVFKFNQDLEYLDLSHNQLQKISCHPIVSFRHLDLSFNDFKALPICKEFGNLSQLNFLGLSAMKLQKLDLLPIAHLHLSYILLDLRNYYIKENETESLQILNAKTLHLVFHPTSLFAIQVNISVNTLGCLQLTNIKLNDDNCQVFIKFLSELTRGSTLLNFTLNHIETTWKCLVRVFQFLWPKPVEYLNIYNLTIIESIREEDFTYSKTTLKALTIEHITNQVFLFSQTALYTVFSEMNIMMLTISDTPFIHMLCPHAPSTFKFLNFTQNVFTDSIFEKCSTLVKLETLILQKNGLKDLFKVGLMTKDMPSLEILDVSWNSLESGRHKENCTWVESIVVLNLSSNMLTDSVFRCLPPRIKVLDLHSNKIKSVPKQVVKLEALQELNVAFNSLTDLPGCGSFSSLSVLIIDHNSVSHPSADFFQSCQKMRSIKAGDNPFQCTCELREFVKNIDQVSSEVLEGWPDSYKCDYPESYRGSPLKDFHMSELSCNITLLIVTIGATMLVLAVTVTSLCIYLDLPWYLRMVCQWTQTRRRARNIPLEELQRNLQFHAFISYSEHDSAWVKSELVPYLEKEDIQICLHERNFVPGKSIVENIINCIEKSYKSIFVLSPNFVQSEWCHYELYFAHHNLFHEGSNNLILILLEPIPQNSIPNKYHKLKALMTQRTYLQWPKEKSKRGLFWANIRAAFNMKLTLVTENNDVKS
Description for TLR7/8: RAW264.7 cells (ATCC, Manassas, Va., USA), which are mouse macrophages, were cultured in low-glucose DMEM (Thermo Fisher Scientific Inc.) supplemented with 10% FBS, 100 IU/ml penicillin and 100 μg/ml streptomycin in a culture system. Human monocyte THP1 cells were cultured in RPMI 1640 (Thermo Fisher Scientific Inc.) supplemented with 10% FBS, 100 IU/ml penicillin and 100 μg/ml streptomycin and then differentiation thereof into macrophages was induced using 10 nM phorbol 12-myristate 13-acetate (PMA) (Sigma-Aldrich Co. LLC.) for 24 hours. CL075, R848, CpG-ODN and Poly(I:C) were purchased from InvivoGen (San Diego, Calif., USA), and LPS was purchased from Sigma-Aldrich Co. (St. Louis, Mo., USA).
Cytotoxicity in RAW 264.7 cells was tested by treatment with these compounds at a concentration of 12.5 to 50 μM. […] The inhibitory effect of TAC5-a on TLR-mediated signaling was confirmed by measuring TNF-α secretion through ELISA in THP1-derived macrophages. […] In addition, in order to evaluate the antagonistic effect of TAC5-a on endosomal TLR activation, cells were cultured along with this compound in the presence of R848 (TLR7/8) or CL075 (TLR7/8), imiquimod (IMQ; TLR7), TL8 (TLR8), poly(I:C) (TLR3) or CpG ODN (TLR9) (FIGS. 4E, 4F and 4G).

With `Nc1cccc(COc2cccnc2N)c1` [TAC5-a, 3-((3-aminobenzyl)oxy)pyridin-2-amine], the “TLR7/8-mediated IL-6 expression” value in the experiment on TLR7/8 was “inhibited”. For the same molecule, the “TLR1/2 (Pam3CSK4)-mediated TNF-α secretion” value at TLR1/2 was “did not block”. Moreover, the “TLR2/6 (FSL-1)-mediated TNF-α secretion” value at TLR2/6 is reported as “did not block”. On TLR4, the “TLR4 (LPS)-mediated TNF-α secretion” value is “did not block”. Further, the “TLR9-mediated TNF-α or IL-6 secretion” value on TLR9 is on record as “significantly inhibited”. Also, in the experiment with MARC/lpr mice (10 nmol/g daily i.p. for 11 days, FIG. 6B), the “production of anti-dsDNA autoantibodies” value is “kept low”. Also, the “serum antinuclear antibodies (ANAs)” value in the experiment with MARC/lpr mice (10 nmol/g daily i.p. for 11 days, FIG. 6C) is “reduced”. The “content of urine albumin” value in the experiment on MARC/lpr mice (10 nmol/g daily i.p. for 11 days, FIG. 6D) is reported as “significantly reduced”. Besides, the “lymph node swelling, appearance evaluation or size decrease” value in the experiment on MARC/lpr mice (10 nmol/g daily intraperitoneally for 11 days, FIG. 6A) is “clearly observed; also recorded: significantly prevented”. Also, in the experiment on MARC/lpr mice (FIGS. 6E to 6G), the “IL-6 mRNA level in lymph nodes (qRT-PCR)” value is given as “significantly reduced”, the “IL-17 mRNA level in lymph nodes (qRT-PCR)” value was “significantly reduced” and the “TLR7 mRNA level in lymph nodes (qRT-PCR)” value is listed as “significantly reduced”.

Values taken from patent US11629155B2, “Small molecule antagonist compound TAC5 series having toll-like receptor 3/7/8/9 inhibitory function” (AJOU UNIVERSITY INDUSTRY-ACADEMIC COOPERATION FOUNDATION, priority 2018, dated 2023).
